“Also recorded” adds a separate entry of the source. Like-named read-outs stand apart in the source and are kept apart here.
Assays:
[1] = target: EeAChE (AChE from Electrophorus electricus) (Electrophorus electricus, UniProt O42275); experiment: biochemical; conditions: for IC50: Ellman's method, pH 8.0, 25 °C, triplicate, ± SDEV, read-out: Inhibition (IC50) of EeAChE; for selectivity index (SI): based on IC50 values against EeAChE and EfBChE
Protocol: (§1) The ChE inhibition assays were performed as previously described. The 1,3- and 1,4-chalcone-donepezil hybrids (0.1 nM to 100 μM) were dissolved in sodium phosphate buffer ((100 μL), 0.1 M, pH 8.0). […] All assays were performed in triplicate. The data was plotted as a sigmoidal curve and IC50 values were calculated using SigmaPlot 14.0 (Systat Software, San Jose, CA, USA).

[2] = target: EfBChE (BChE from Equus ferus) (Equus caballus, UniProt P81908); experiment: biochemical; assay type: biochemical; conditions: for IC50: Ellman's method, pH 8.0, 25 °C, triplicate, ± SDEV, read-out: Inhibition (IC50) of EfBChE; for inhibition of EfBChE better than that of EeAChE: from IC50 values
EfBChE (BChE from Equus ferus), sequence (P81908 whole entry): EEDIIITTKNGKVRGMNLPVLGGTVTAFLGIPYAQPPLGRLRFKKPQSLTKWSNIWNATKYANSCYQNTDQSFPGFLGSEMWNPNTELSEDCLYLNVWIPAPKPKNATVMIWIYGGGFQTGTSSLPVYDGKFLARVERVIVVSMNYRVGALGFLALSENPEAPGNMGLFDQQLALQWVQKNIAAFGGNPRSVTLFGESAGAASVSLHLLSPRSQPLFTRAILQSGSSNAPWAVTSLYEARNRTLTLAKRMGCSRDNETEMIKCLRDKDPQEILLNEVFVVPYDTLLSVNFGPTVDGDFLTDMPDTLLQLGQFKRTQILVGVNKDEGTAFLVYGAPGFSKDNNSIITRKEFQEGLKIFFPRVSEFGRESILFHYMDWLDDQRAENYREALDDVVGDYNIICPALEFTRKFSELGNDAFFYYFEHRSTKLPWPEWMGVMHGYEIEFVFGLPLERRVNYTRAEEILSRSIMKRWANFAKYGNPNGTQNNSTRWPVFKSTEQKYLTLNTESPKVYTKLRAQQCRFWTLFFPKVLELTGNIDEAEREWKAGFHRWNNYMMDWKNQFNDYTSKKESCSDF
Protocol: as §1

F40 = Aβ(1–40) fibrils = target: T1, F40 = Aβ(1–40) fibrils (Homo sapiens, UniProt P05067); experiment: 3H-PIB binding competition/titration, Aβ(1–40) fibrils; conditions: compounds at 10 μM (titration 10 to 0.03 μM); 1.2 nM 3H-PIB
T1 construct: lyophilized NH4OH-treated Aβ(1–40) (cat # A-1157-02); purchased rPeptide (Watkinsville, GA, USA) A-1157-02
T1 sequence (P05067 672-711): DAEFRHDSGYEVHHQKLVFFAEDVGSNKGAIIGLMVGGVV
Protocol: (§2) Prior to being transferred to screw-top polypropylene vials and being stored at −75 °C, these 1 mg/mL fibril suspensions were further diluted with an equal volume of the buffer solution.
(§3) The plates were sealed and incubated for 3 h at 22 °C, without shaking, and transferred to a 96-well Millipore Multiscreen HTS Hi Flow FB (GF/B) filter plate, and filtered with a multi-well plate vacuum manifold (Millipore Corporation, Bedford, MA, USA). […] Specific binding of ^3H-PIB was determined by subtracting the non-specific binding determined in the presence of 1 μM BTA-1.
(§4) The titration of compounds with ^3H-PIB bound to Aβ(1–40) and Aβ(1–42) fibrils and AD brain extract (ADPBC) were performed to further determine the competition of our compounds for the ^3H-PIB binding site of the AD brain. The experiments were performed as described in the ^3H-PIB binding assays of Section 3.4.3 with the use of a concentration range of 10 to 0.03 μM for the compounds tested.

F42 = Aβ(1–42) fibrils = target: T2, F42 = Aβ(1–42) fibrils (Homo sapiens, UniProt P05067); experiment: 3H-PIB binding competition/titration, Aβ(1–42) fibrils; conditions: compounds at 10 μM (titration 10 to 0.03 μM); 1.2 nM 3H-PIB
T2 construct: Aβ(1–42) (cat # A-1167-02) purchased from rPeptide; purchased rPeptide (Watkinsville, GA, USA) A-1167-02
T2 sequence (P05067 672-713): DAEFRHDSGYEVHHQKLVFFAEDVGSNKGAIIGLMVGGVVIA
Protocol: as §2, §3, §4

[3] = tested on: ADPBC (Alzheimer's disease PIB binding complex); experiment: 3H-PIB binding competition/titration, ADPBC; design: species or system Human; conditions: compounds at 10 μM (titration 10 to 0.03 μM); 1.2 nM 3H-PIB
Protocol: Human AD brain frontal cortical tissue (from the Sanders-Brown Center on Aging Alzheimer’s Disease Center Brain Bank at the University of Kentucky) was processed as follows.
as §3, §4

[4] = target: T3, N-biotinyl-Aβ(1–42) (bioAβ42) oligomer assembly (Homo sapiens, UniProt P05067); experiment: biochemical; conditions: for bioAβ42 oligomer assembly inhibition (in words): 1.56 to 50 μM, alone or in 1:1 / 1:1:1 mixtures; for EC50: concentration range 50 to 1.56 μM, duplicate, n = 3 independent experiments, ± SDEV
T3 construct: N-biotinyl Aβ(1–42) (bioAβ42) was purchased from Anaspec; purchased Anaspec (Fremont, CA, USA) AS-23523-05
T3 sequence (P05067 672-713): as above
Protocol: We first examined the effect of the synthesized 1,3- and 1,4-chalcone-donepezil hybrids 15a–15f and 16a–16f on the assembly of N-biotinyl-Aβ(1–42) (bioAβ42) monomers into oligomers. We quantified the assembly of bioAβ42 into soluble oligomers by using an ELISA assay in which the soluble oligomers were captured on NeutrAvidin^TM-coated ELISA plates and detected with streptavidin-horseradish peroxidase and colorimetric readout (Figure 3).
The plates were then stored in their blocked form at 4 °C prior to use for the oligomer assembly and dissociation assays.
The assembly of bioAβ42 into soluble oligomers was quantified with an ELISA assay in which the soluble oligomers were captured with the NeutrAvidin^TM coating the ELISA plates. The bound oligomers were detected with streptavidin-horseradish peroxidase (SA-HRP). […] Below, please find the details of the three steps (Steps 1–3) used for the oligomer assembly assay.
Step 1: Preparation of monomeric bioAβ42. For a low background, it was essential to rigorously pretreat the bioAβ42 peptide to convert (disaggregate) the multimeric species that form upon storage in the solid state, or even frozen in 1,1,1,3,3,3-hexafluoroisopropanol (HFIP) to monomers. The required amount of stock bioAβ42 peptide (0.5 mg dissolved at 1 mg/mL in HFIP) was pipetted into a polypropylene microfuge tube, dried to a thin film under a gentle air or N2 stream, and then disaggregated for 10 min at rt in neat trifluoroacetic acid (TFA). After removal of the TFA by drying with an air or N2 stream, DMSO was added to produce a 2.3 μg/mL (50×) stock solution.
Step 2: Assembly of bioAβ42 oligomers. 2 μL of disaggregated monomeric 50× bioAβ42 peptide in DMSO (prepared in Step 1) was pipetted into the bottom of each well of a polypropylene 96-well plate. […] The 96-well plate was sealed and incubated at rt for 30 min without shaking. The bioAβ42 oligomer assembly was stopped by adding 50 μL of 0.3% Tween 20 v/v in distilled H2O.
Step 3: Measurement of bioAβ42 oligomers. […] The 96-well plate was then sealed and incubated for 2 h while shaking at 150 rpm at rt. […] The plate was sealed and incubated for 1 h while shaking at 150 rpm at rt. The plate was washed as previously described, and 100 μL/well of HRP substrate (i.e., 1 mM:0.07 mM/tetramethylbenzidine:H2O2) in 0.2 M citrate buffer, pH 4.0 was added. The plate was incubated at rt for 5 to 10 min and the reaction was stopped by the addition of 100 μL/well of 1% v/v H2SO4. The absorbance of each well was read at 450 nm with a BioTek HT Synergy plate reader.
(§5) The effects of various chalcones, donepezil, donepezil analogue, and 1,3-chalcone-donepezil hybrids were tested for their ability to inhibit the bioAβ42 oligomer assembly and dissociation either alone or in combination with each other. The experiments were performed as described in the biotinyl-Aβ(1–42) (bioAβ42) oligomer assembly and dissociation assays section.

[5] = target: T4, preformed bioAβ42 oligomers (Homo sapiens, UniProt P05067); experiment: bioAβ42 oligomer dissociation assay (NeutrAvidin ELISA); assay type: biochemical; conditions: 0.01 to 50 μM; ~18 h; alone or in 1:1 / 1:1:1 mixtures
T4 construct: N-biotinyl Aβ(1–42) (bioAβ42) was purchased from Anaspec; purchased Anaspec (Fremont, CA, USA) AS-23523-05
T4 sequence (P05067 672-713): as above
Protocol: Dissociation of preformed oligomers of bioAβ42 was measured by pretreating biotinylated oligomers with solvent controls or compounds for a period of time, capturing them with NeutrAvidin^TM on ELISA plates, and detecting the remaining bound oligomers with SA-HRP [77] as described above. Below, please find the details of the two steps (Steps 1 and 2) used for the oligomer dissociation assay.
Step 1: Preformed bioAβ42 oligomers (sufficient for 400 wells). In total, 1 μg of bioAβ42 peptide (1 mg/mL dissolved in HFIP) was pipetted into 20 μL of HFIP in a polypropylene microfuge tube, and dried to a thin film under a gentle air or N2 stream. The film was dissolved in 250 μL of DMSO and vortexed. […] After incubation at rt for 1 h with intermittent vortexing, 0.375 mL of 100 mM Tween 20 (10% v/v) in distilled H2O was added to make the final Tween 20 concentration 0.3% v/v. The preformed oligomers were mixed by inversion and aliquoted for storage at −75 °C. Note: Multiple freeze-thaw cycles should be avoided.
Step 2: Oligomer dissociation assay. […] Then, 25 μL of the preformed bio42 oligomers adjusted to 0.6% v/v Tween 20 was pipetted into each well of a polypropylene 96-well plate. […] The plates were sealed and shaken at 150 rpm overnight at rt. After 18 h of incubation, the plates were centrifuged at 1000× g for 10 min and a 100-μL aliquot was transferred from each well into a well of an NA-coated ELISA plate that had been blocked with Tween 20. The oligomer content of that aliquot was measured as described for the bioAβ42 oligomer assembly assay.
as §5

[6] = read-out: EC50 against bioAβ42 oligomer assembly

EeAChE (AChE from Electrophorus electricus), sequence (O42275 24-633): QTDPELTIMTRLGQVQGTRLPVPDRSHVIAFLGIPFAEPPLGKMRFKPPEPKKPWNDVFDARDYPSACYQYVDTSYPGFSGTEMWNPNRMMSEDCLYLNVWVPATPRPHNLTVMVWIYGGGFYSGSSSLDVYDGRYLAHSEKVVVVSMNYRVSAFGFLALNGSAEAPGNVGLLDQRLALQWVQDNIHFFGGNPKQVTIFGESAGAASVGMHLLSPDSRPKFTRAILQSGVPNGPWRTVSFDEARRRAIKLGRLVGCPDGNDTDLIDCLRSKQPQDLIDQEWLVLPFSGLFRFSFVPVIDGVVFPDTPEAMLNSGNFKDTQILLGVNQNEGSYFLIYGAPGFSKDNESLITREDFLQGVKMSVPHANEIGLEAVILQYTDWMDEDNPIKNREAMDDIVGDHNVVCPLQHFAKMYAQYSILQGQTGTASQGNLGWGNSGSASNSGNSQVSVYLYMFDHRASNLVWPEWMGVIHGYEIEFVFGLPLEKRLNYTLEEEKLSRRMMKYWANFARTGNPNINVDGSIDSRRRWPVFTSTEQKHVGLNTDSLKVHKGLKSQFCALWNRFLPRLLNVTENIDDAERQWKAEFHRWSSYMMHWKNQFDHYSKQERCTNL

COc1cc2c(cc1OCCOc1cccc(C(=O)/C=C/c3ccc(N(C)C)cc3)c1)C(=O)C(CC1CCN(Cc3ccccc3)CC1)C2 (stereo not shown) [15a, (E)-2-((1-Benzylpiperidin-4-Yl)Methyl)-6-(2-(3-(3-(4-(Dimethylamino)Phenyl)Acryloyl)Phenoxy)Ethoxy)-5-Methoxy-2,3-Dihydro-1H-Inden-1-One]
IC50 [1]: 1020 ± 330 nM
selectivity index (SI) [1]: 0.02
IC50 [2]: 20 ± 2 nM
inhibition of EfBChE better than that of EeAChE [2]: 51 fold
displacement of 3H-PIB from F40 (in words) (F40 = Aβ(1–40) fibrils): better binding to F40, F42, and ADPBC than 15c, 15d, 15e, and 15f
displacement of 3H-PIB from F42 (in words) (F42 = Aβ(1–42) fibrils): better binding to F40, F42, and ADPBC than 15c, 15d, 15e, and 15f
displacement of 3H-PIB from ADPBC (in words) [3]: better binding to F40, F42, and ADPBC than 15c, 15d, 15e, and 15f
bioAβ42 oligomer assembly inhibition (in words) [4]: successful in preventing the self-assembly of bioAβ42; also recorded: better inhibition of bioAβ42 oligomer assembly
EC50 ([4]; EC50 against bioAβ42 oligomer assembly): 4830 ± 470 nM

COc1cc2c(cc1OCCCCOc1cccc(C(=O)/C=C/c3ccc(N(C)C)cc3)c1)C(=O)C(CC1CCN(Cc3ccccc3)CC1)C2 (stereo not shown) [15b, (E)-2-((1-Benzylpiperidin-4-Yl)Methyl)-6-(4-(3-(3-(4-(Dimethylamino)Phenyl)Acryloyl)Phenoxy)Butoxy)-5-Methoxy-2,3-Dihydro-1H-Inden-1-One]
IC50 [1]: 650 ± 140 nM
selectivity index (SI) [1]: 0.05
IC50 [2]: 30 ± 10 nM
inhibition of EfBChE better than that of EeAChE [2]: 22 fold
displacement of 3H-PIB from F40 (in words) (F40 = Aβ(1–40) fibrils): better binding to F40, F42, and ADPBC than 15c, 15d, 15e, and 15f
displacement of 3H-PIB from F42 (in words) (F42 = Aβ(1–42) fibrils): better binding to F40, F42, and ADPBC than 15c, 15d, 15e, and 15f
displacement of 3H-PIB from ADPBC (in words) [3]: better binding to F40, F42, and ADPBC than 15c, 15d, 15e, and 15f
bioAβ42 oligomer assembly inhibition (in words) [4]: better inhibition of bioAβ42 oligomer assembly
EC50 [4, 6]: 4100 ± 170 nM

CN(C)c1ccc(/C=C/C(=O)c2cccc(O)c2)cc1 [compound 3, (E)-3-(4-(Dimethylamino)Phenyl)-1-(3-Hydroxyphenyl)Prop-2-En-1-One]
bioAβ42 oligomer assembly inhibition (in words) [4]: did not inhibit bioAβ42 assembly
EC50 [4, 6]: > 50000 nM
dissociation of preformed bioAβ42 oligomers (in words) [5]: did not dissociate the preformed oligomers

CN(C)c1ccc(/C=C/C(=O)c2cccc(OCCO)c2)cc1 [compound 17, (E)-3-(4-(Dimethylamino)Phenyl)-1-(3-(2-Hydroxyethoxy)Phenyl)Prop-2-En-1-One]
bioAβ42 oligomer assembly inhibition (in words) [4]: did not inhibit bioAβ42 assembly
dissociation of preformed bioAβ42 oligomers (in words) [5]: did not dissociate the preformed oligomers

COc1cc2c(cc1OCCO)C(=O)C(CC1CCN(Cc3ccccc3)CC1)C2 (stereo not shown) [compound 20, 2-((1-Benzylpiperidin-4-Yl)Methyl)-6-(2-Hydroxyethoxy)-5-Methoxy-2,3-Dihydro-1H-Inden-1-One]
bioAβ42 oligomer assembly inhibition (in words) [4]: did not inhibit bioAβ42 assembly
dissociation of preformed bioAβ42 oligomers (in words) [5]: did not dissociate the preformed oligomers
